# Assays:
# PEL cells (BC3) = test: Viability after zVAD-FMK pan-caspase inhibitor pre-treatment; assay type: cell-based, human; settings: 80 μM zVAD-FMK pre-treatment, 48 hours
# Method: (§1) Cell viability assays were performed by plating log-phase cells in RPMI complete media with 20% FBS at 1*10^5 cells/mL, with concentrations of 6-ETI or phospho-6-ETI ranging from 0.1 nM to 100 μM. ATP content at 24, 48 and 72 hours post-treatment was measured by the CellTiter-Glo kit (Promega, Madison, Wis.), or by Trypan blue assay as indicated. The LC50 for 6-ETI in each cell line was determined using online EC50 software at changbioscience.com or using GraphPad Prism to determine the LC50 for 6-ETI, phospho-6-ETI and nucleoside analogs in MM cell lines and primary MM patient samples.
# [1] = tested on: BC3NFRen-luc #3 PEL xenograft; test: PEL xenograft model (BC3NFRen-luc #3 in NOD-SCID mice); assay type: in vivo
# Method: The BC3 in vivo xenograft model was set up as previously described (6). Essentially, ˜4-6 week old male NOD-SCID mice (Jackson Labs Stock# 001303) were injected intraperitoneally (I.P.) with 1*10^7 BC3NFRen-luc #3 cells and followed by in vivo imaging every three days. After imaging on day 5 to confirm establishment of the tumor, the mice were randomized to vehicle, low dose and high dose cohorts, with average tumor burden distributed evenly across the groups. Each dose cohort contained 10 mice. Mice were treated for nine days beginning at randomization with vehicle (PBS-Tween80), low dose 6-ETI (150 mg/kg/day), or high dose 6-ETI (300 mg/kg/day). Mice were treated with 200 mg/kg of the 6-ETI analogs (phospho-6ETI and 6-ETI cAMP) for 9 days. We monitored mice for tumor growth by live imaging and weighing, with sacrifice point determined to be a net gain or loss of 10% body weight over a week. Upon reappearance of refractory tumors, mice were re-treated for a further 9-day interval, and followed for a total of 100 days. Compound effects were assessed on overall survival, progression-free survival and tumor burden by Kaplan-Meier curves generated using GraphPad Prism software, and determined p values by 2-tailed analysis with log-rank tests.
# [2] = tested on: IBL-1 subcutaneous xenograft; test: Xenograft model of EBV-associated immunoblastic lymphoma; assay type: in vivo, mouse; settings: 300 mg/kg/day i.p., 5 treatments over 10 days
# Method: The in vivo xenograft model of EBV-associated immunoblastic lymphoma was generated by injecting NOD-SCID mice (obtained from Jackson Laboratory Stock# 001303) subcutaneously on the flank region with 5*10^6IBL-1 cells in 200 μl of 50:50 matrigel/cell suspension per mouse. After forming palpable or measurable tumors, mice were randomly grouped (n=3 per group) and treated intraperitoneally with vehicle PBS-Tween80 or 6-ETI (300mg/kg/day) for 5 treatments over the course of 10 days where drug was administered three times a week. Tumor size was assessed by caliper measurement three times a week, and tumor volume (V) was calculated using the formula V=(length×Width^2)/2 where L=length or largest tumor diameter and W=width or the perpendicular tumor diameter. Relative tumor volume was determined according to the formula Vd/V0 where Vd is tumor volume on the day of measurement, and V0 represents the tumor volume on day 0 when the treatment started. At the end of the treatment course, two of the control mice were treated with vehicle PBS-Tween80 or 6-ETI (300 mg/kg) for 24 hr after which the tumors were harvested, fixed in 10% formalin and embedded in paraffin for histological examination and immunohistochemistry.
# KSHV+ PEL cell lines = test: CellTiter-Glo viability assay, KSHV+ cell line panel; assay type: cell-based, human
# Method: as §1
# KSHV+ primary effusion lymphoma (PEL) cell lines (BC1, BC2, BC3, BC5, BCBL1, BCP1), EBV+ lymphoblastoid cell line LCL9001, EBI+ diffuse large B-cell lymphomas (DLBCL) with immunoblastic features (IBL1, IBL4), and EBV+ effusion DLBCL BCKN1 were cultured in RPMI-1640 medium (Invitrogen) supplemented with 50 μg/mL Gentamicin (Sigma-Aldrich) and 10% or 20% heat-inactivated fetal bovine serum, respectively. Uninfected DLBCL cell lines (Ly2, Ly7) were cultured in IMDM (Invitrogen) supplemented with 50 μg/mL Gentamicin and 10% FBS. Multiple myeloma (MM) cell lines U266 and MM1S were cultured in RPMI supplemented with 15%FBS and 50 μg/mL Gentamicin, while JJN3 was cultured in 40% IMDM/40% DMEM plus 20% FBS supplemented with 50 μg/mL Gentamicin. Hodgkin's lymphoma (L428, L1236) and Burkitt's lymphoma cell lines (BJAB, Namalwa)were maintained in RPMI-1640 supplemented with Gentamicin and 10% FBS. All of the PEL cell lines and IBL1 were established in our laboratory from lymphomatous effusions except BCBL1, which was obtained from the AIDS and Cancer Specimen Bank. Burkitt lymphoma cell lines Namalwa and BJAB as well as the multiple myeloma cell line U266 were obtained from the American Type Culture Collection (ATCC). JJN3 cell line and Hodgkin cell lines (L428, L1236) were obtained from DSMZ. DLBCL cell lines LY2 and LY7 were provided by Riccardo Dana-Rivera (Columbia University), MM1S cell line was provided by Dr. Giorgio Inghiraini lab at Weill Cornell Medicine. […]
# BC3 cells = test: Propidium iodide cell cycle flow cytometry; assay type: cell-based, human; settings: BC3, 1 μM, 24 hours
# Method: BC3 cells in the exponential phase were seeded at a cell density of 2*10^5 cells/mL. Cells were treated with 0.1% DMSO or with 6-ETI at a final concentration of 1 μM 6-ETI for 24 hrs for cell cycle. Post-treatment, cells were harvested, fixed and stained in Propidium Iodide (Roche). Subsequently, stained cells were analyzed by flow cytometry using BD FACS Aria II SORP cell sorter, and phases of the cell cycle modeled using FlowJo v7.6.5.
# [3] = tested on: KSHV lytic reactivation in JSC1 PEL cell line; test: Lytic reactivation flow assay in rKSHV.219 infected JSC1 cells; assay type: cell-based; settings: in a small proportion of cells; 1 or 10 μM, 24 or 48 hours
# Method: Lytic reactivation low was performed as previously described (Soulier J. et al., Blood 1995;86(4):1276-80). JSC1 B3.1 cells in the exponential phase were seeded at 2*10^5 cells/mL and treated with 1 or 10 μM 6-ETI for 24 or 48 hours, or 20 ng/mL lytic inducer TPA for 48 hours.
# [4] = tested on: MM cell lines JJN3, MM1S, U266 and CAG; test: CellTiter-Glo viability assay, MM cell lines; assay type: cell-based
# Method: as §1
smiles,measurement,setting,value
"CCSc1ncnc2c1ncn2[C@@H]1O[C@H](CO)C(O)[C@@H]1O (stereo partly drawn) [Compound 6-ETI, 6-ethylthioinosine]",caspase dependence of induced cell death,PEL cells (BC3),largely caspase-independent
same,toxicities from treatment,[1]; 150 or 300 mg/kg/day,no obvious toxicities
same,tumor response by in vivo luciferase imaging,"[1]; 150 or 300 mg/kg/day for 9 days, within three days of treatment",striking and immediate regression of the implanted xenograft
same,progression-free survival,"[1]; 150 or 300 mg/kg/day, p<0.0001, 100 days",startling protective effect
same,overall survival,[1]; low dose and high dose versus untreated,significant prolonged overall survival
same,tumor growth,[2],reduced the rate of tumor growth
same,CC50,"KSHV+ PEL cell lines; Homo sapiens, 48 h, read-out: LC50",30 to 435 nM
same,average fold-difference in sensitivity,KSHV+ PEL cell lines; KSHV- versus KSHV+ cell lines,~275 X
same,LC95,KSHV+ PEL cell lines; PEL cell lines,~1000 nM
same,cell cycle distribution,BC3 cells,reproducible increase in the percentage of cells in S-phase
same,lytic reactivation,[3],induction of lytic reactivation
same,LC50,[4],high nM range
